Counter-ions that a name gives are not always drawn.
Compound	melting point
CCCCOc1ccc(S(=O)(=O)C2(C(=O)NO)CCN(CCOc3ccccc3)CC2)cc1 (as salt: HCl) [Example 108, 4-(4-n-Butoxy-benzenesulfonyl)-1-(2-phenoxy-ethyl)-piperidine-4-carboxylic acid hydroxyamide]	112 °C
COc1ccc(SC(C)(CC=C(C)C)C(=O)NO)cc1 (stereo not drawn) [Example 3, 2-(4-Methoxy-phenylsulfanyl)-2,5-dimethyl-hex-4-enoic acid hydroxyamide]	89 °C
Cn1ccnc1S(=O)(=O)C(C)(Cc1ccc(-c2ccccc2)cc1)C(=O)NO (stereo not drawn) [Example 47, 3-Biphenyl-4-yl-2-methyl-2-(1-methyl-1H-imidazole-2-sulfonyl)-propionic acid hydroxyamide]	112 °C
COc1ccc(S(=O)(=O)C(C)(Cc2ccc(OCCCN3CCN(c4cccc(Cl)c4)CC3)cc2)C(=O)NO)cc1 (stereo not drawn) (as salt: HCl) [Example 23, 3-(4-{3-[4-(3-Chloro-phenyl)-piperazin-1-yl]-propoxy}-phenyl)-N-hydroxy-2-(4-methoxy-benzenesulfonyl)-2-methyl-propionamide]	122 °C
COc1ccc(S(=O)(=O)C2(C(=O)NO)CCN(Cc3cccc(OC)c3)CC2)cc1 [Example 84, 4-(4-methoxy-benzenesulfonyl)-1-(3-methoxy-benzyl)-piperidine-4-carboxylic acid hydroxyamide]	130 °C
CCC(Cc1ccc(OCCN2CCCCC2)cc1)(C(=O)NO)S(=O)(=O)c1ccc(OC)cc1 (stereo not drawn) [Example 34, N-Hydroxy-2-(4-methoxy-benzenesulfonyl)-2-[4-(2-piperdin-1-yl-ethoxy)-benzyl]-butyramide]	75 °C
CCCCC(Cc1ccc(OCCN(CC)CC)cc1)(C(=O)NO)S(=O)(=O)c1ccc(OC)cc1 (stereo not drawn) [Example 27, 2-[4-(2-Diethylamino-ethoxy)-benzyl]-2-(4-methoxy-benzenesulfonyl)-hexanoic acid hydroxyamide]	67 °C
COc1ccc(S(=O)(=O)C(C)(Cc2cccc(OCCN3CCCCC3)c2)C(=O)NO)cc1 (stereo not drawn) [Example 22, N-Hydroxy-2-(4-methoxy-benzenesulfonyl)-2-methyl-3-[3-(2-piperidin-1-yl-ethoxy)-phenyl]-propionamide]	74 °C
CC#CCC(CC#CC)(C(=O)NO)S(=O)(=O)c1ccc(F)cc1 [Example 78, 2-(4-Fluoro-benzenesulfonyl)-2-but-2-ynyl-hex-4-ynoic acid hydroxyamide]	161 to 163 °C
COc1ccc(S(=O)(=O)C(C)(Cc2cccnc2)C(=O)NO)cc1 (stereo not drawn) [Example 61, N-hydroxy-2-(4-methoxy-benzenesulfonyl)-2-methyl-3-pyridin-3-yl-propionamide]	98 °C
COc1ccc(S(=O)(=O)C(C)(Cc2ccccc2)C(=O)NO)cc1 (stereo not drawn) [Example 12, N-Hydroxy-2-(4-methoxy-benzenesulfonyl)-2-methyl-3-phenyl-propionamide]	58 °C
COc1ccc(SC(C(=O)NO)c2ccccc2)cc1 (stereo not drawn) [Example 2, N-Hydroxy-2-(4-methoxy-phenylsulfanyl)-2-phenyl-acetamide]	155 °C
COc1ccc(S(=O)(=O)C2(C(=O)NO)CCN(CCCc3ccccc3)CC2)cc1 [Example 91, 4-(4-methoxy-benzenesulfonyl)-1-(3-phenyl-propyl)-piperidine-4-carboxylic acid hydroxyamide]	143 °C
CCCCCCC(Cc1ccc(OCCN2CCCCCC2)cc1)(C(=O)NO)S(=O)(=O)c1ccc(OC)cc1 (stereo not drawn) [Example 36, 2-[4-(2-Azepan-1-yl-ethoxy)-benzyl]-2-(4-Methoxy-benzenesulfonyl)-octanoic acid hydroxyamide]	65 °C
C=CCC(CC=C)(C(=O)NO)S(=O)(=O)c1ccc(OC)cc1 [Example 58, 2-allyl-2-(4-methoxy-benzenesulfonyl)-pent-4-enoic acid hydroxyamide]	114 to 116 °C
COc1ccc(S(=O)(=O)C(CCCCOc2ccccc2)(Cc2cccnc2)C(=O)NO)cc1 (stereo not drawn) [Example 68, 2-(4-Methoxy-benzenesulfonyl)-6-phenoxy-2-pyridin-3-ylmethyl-hexanoic acid hydroxyamide]	68 °C
COc1ccc(SC(C)(Cc2ccccc2)C(=O)NO)cc1 (stereo not drawn) [Example 1, N-Hydroxy-2-(4-methoxy-phenylsulfanyl)-2-methyl-3-phenyl-propionamide]	88 °C
COc1ccc(S(=O)(=O)C2(C(=O)NO)CCN(Cc3ccc(C)cc3)CC2)cc1 [Example 86, 4-(4-methoxy-benzenesulfonyl)-1-(4-methylbenzyl)-piperidine-4-carboxylic acid hydroxamide]	176 to 177 °C
CCCCCC(Sc1ccc(OC)cc1)C(=O)NO (stereo not drawn) [Example 80, 2-(4methoxy-phenylsulfanyl)-heptanoic acid hydroxyamide]	90 to 95 °C
COc1ccc(S(=O)(=O)C(C)(Cc2cccc(OCCN3CCOCC3)c2)C(=O)NO)cc1 (stereo not drawn) [Example 30, N-Hydroxy-2-(4-methoxy-benzenesulfonyl)-2-methyl-3-[3-(2-morpholin-1-yl-ethoxy)-phenyl]-propionamide]	63 °C

Compound	melting point
COc1ccc(CCN2CCC(C(=O)NO)(S(=O)(=O)c3ccc(OC)cc3)CC2)cc1 (as salt: HCl) [Example 102, 4-(4-methoxy-benzenesulfonyl)-1-[2-(4-methoxyphenyl)-ethyl]-piperidine-4-carboxylic acid hydroxyamide]	206 °C
CCCCOc1ccc(S(=O)(=O)C2(C(=O)NO)CCN(Cc3ccc(F)cc3)CC2)cc1 [Example 100, 1-(4-Fluoro-benzyl)-4-(4-butoxy-benzenesulfonyl)-piperidine-4-carboxylic acid hydroxyamide]	112 °C
CC#CCC(CC#CC)(C(=O)NO)S(=O)(=O)c1ccc(OC)cc1 [Example 72, 2-(4-Methoxy-benzenesulfonyl)-2-but-2-ynyl-hex-4-ynoic acid hydroxyamide]	141 to 143 °C
COc1ccc(S(=O)(=O)C2(C(=O)NO)CCN(Cc3ccc(Cl)c(Cl)c3)CC2)cc1 [Example 85, 1-(3,4-dichlorobenzyl)-4-(4-methoxy-benzenesulfonyl)-piperidine-4-carboxylic acid hydroxamide]	192 to 195 °C
COc1ccc(S(=O)(=O)C2(C(=O)NO)CCN(CCOc3ccccc3)CC2)cc1 (as salt: HCl) [Example 107, 4-(4-methoxy-benzenesulfonyl)-1-(2-phenoxy-ethyl)-piperidine-4-carboxylic acid hydroxyamide]	168 to 172 °C
CCCCCC#CCC(Cc1cccnc1)(C(=O)NO)S(=O)(=O)c1ccc(F)cc1 (stereo not drawn) (as salt: salt) [Example 77, 2-(4-Fluoro-benzenesulfonyl)-2-pyridin-3-ylmethyl-dec-4-ynoic acid hydroxyamide]	180 to 182 °C
CCCCC(Cc1cccnc1)(C(=O)NO)S(=O)(=O)c1ccc(OC)cc1 (stereo not drawn) [Example 70, 2-(4-Methoxy-benzenesulfonyl)-2-pyridin-3-ylmethyl-hexanoic acid hydroxyamide]	70 °C
COc1ccc(S(=O)(=O)C(C(=O)NO)C(C)C)cc1 (stereo not drawn) [Example 53, N-Hydroxy-2-(4methoxy-benzenesulfonyl)-3-methyl-butyramide]	220 °C
COc1ccc(S(=O)(=O)C(Cc2cccnc2)(CC2CCCCC2)C(=O)NO)cc1 (stereo not drawn) (as salt: hydrochloride) [Example 65, 3-Cyclohexyl-N-hydroxy-2-(4-methoxy-benzenesulfonyl)2-pyridin-3-ylmethyl-propionamide]	57 to 60 °C
COc1ccc(S(=O)(=O)C(C)(Cc2ccc(OCCN(C(C)C)C(C)C)cc2)C(=O)NO)cc1 (stereo not drawn) (as salt: HCl) [Example 20, N-Hydroxy-2-(4-methoxy-benzenesulfonyl)-2-methyl-3-[4-(2-N,N-diisopropylamino-ethoxy)-phenyl]-propionamide]	98 °C
COc1ccc(S(=O)(=O)C(C)(CCCCN2C(=O)c3ccccc3C2=O)C(=O)NO)cc1 (stereo not drawn) [Example 31, 6-(1,3-Dioxo-1,3-dihydro-isoindol-2-yl)-2(4-methoxy-benzenesulfonyl)-2-methyl-hexanoic acid hydroxyamide]	146 to 148 °C
COc1ccc(S(=O)(=O)C(Cc2ccc3ccccc3c2)C(=O)NO)cc1 (stereo not drawn) [Example 40, N-Hydroxy-2-(4-methoxy-benzenesulfonyl)-3-naphthalen-2-yl-propionamide]	161 to 163 °C
C#CCC(Cc1cccnc1)(C(=O)NO)S(=O)(=O)c1ccc(OC)cc1 (stereo not drawn) [Example 75, 2-(4-Methoxy-benzenesulfonyl)-2-pyridin-3-ylmethyl-pent-4-ynoic acid hydroxyamide]	119 to 121 °C
COc1ccc(S(=O)(=O)C2(C(=O)NO)CCN(Cc3ccc(OCCN4CCCCC4)cc3)CC2)cc1 (as salt: HCl) [Example 109, 4-(4-Methoxy-benzenesulfonyl)-1-[4-(2-piperidin-1-yl-ethoxy)-benzyl]-piperidine-4-carboxylic acid hydroxyamide]	114 °C
COc1ccc(S(=O)(=O)C(C)(CC2CCCCC2)C(=O)NO)cc1 (stereo not drawn) [Example 16, 3-Cyclohexyl-N-hydroxy-2-(4-methoxy-benzenesulfonyl)-2-methyl-propionamide]	58 °C
COc1ccc(S(=O)(=O)C(C)(CC=Cc2ccccc2)C(=O)NO)cc1 (stereo not drawn) [Example 56, 2-(4-methoxy-benzenesulfonyl)-2-methyl-5-phenyl-pent-4-enoic acid hydroxyamide]	162 to 164 °C
CC#CCC(Cc1cccnc1)(C(=O)NO)S(=O)(=O)c1ccc(F)cc1 (stereo not drawn) (as salt: salt) [Example 76, 2-(4-Fluoro-benzenesulfonyl)-2-pyridin-3-ylmethyl-hex-4-ynoic acid hydroxyamide]	190 °C
COc1ccc(S(=O)(=O)C(CCCc2ccccc2)(CCCc2ccccc2)C(=O)NO)cc1 [Example 57, 2-(4methoxy-benzenesulfonyl)-5phenyl-2-(3-phenyl-propyl)-pentanoic acid hydroxyamide]	118 to 120 °C
COc1ccc(S(=O)(=O)C(Cc2ccccc2)C(=O)NO)cc1 (stereo not drawn) [Example 9, N-Hydroxy-2-(4-methoxy-benzenesulfonyl)-3-phenyl-propionamide]	180 °C

Reference: US6342508B1, “N-hydroxy-2-(Alkyl,Aryl or Heteroaryl sulfanyl, sulfinyl or sulfonyl) 3-substituted alkyl, aryl or heteroarylamides as matrix metalloproteinase inhibitors” (American Cyanamid Company, priority 1997, dated 2002)
